Data set [1] can be described thus: Cytotoxicity against human VA13 cells assessed as reduction in cell viability measured after 72 hrs by MTT assay. It counts as cell-based. Conditions: WI-38 VA13 cells. In general terms: Tetrazolium dyes change colour on reduction, which living cells bring about.
The target of data set [2] is Glutamate carboxypeptidase 2 (Homo sapiens, UniProt Q04609). Put plainly: Inhibition of PSMA in human LNCAP cells using NAAG as substrate measured after 2 hrs by amplex red reagent based fluorescence assay. It counts as cell-based.
Data set [3] can be described thus: Cytotoxicity against HEK293T cells assessed as reduction in cell viability measured after 72 hrs by MTT assay. It counts as cell-based, HEK-293T. The note with it: human.
A short description of data set [4]: Selectivity ratio of CC50 for human PSMA-deficient PC3 cells to CC50 for PSMA-positive human 22Rv1 cells. It counts as functional.
Data set [5] deals with CWR22R. Put plainly: Cytotoxicity against PSMA-positive human 22Rv1 cells assessed as reduction in cell viability measured after 72 hrs by MTT assay. It counts as functional. Conditions: 22Rv1, 72 h.
The nature of data set [6]: Cytotoxicity against human A549 cells assessed as reduction in cell viability measured after 72 hrs by MTT assay. It counts as cell-based.
In data set [7] the test system is CWR22R. Put plainly: Antitumor activity against human 22Rv1 cells xenografted in nu/nu mouse assessed as tumor growth inhibition at 10 mg/kg, iv administered 3 times per week relative to control. It counts as functional. Conditions: 22Rv1, iv, read-out: TGI.
A short description of data set [8]: Selectivity ratio of CC50 for human VA13 cells to CC50 for PSMA-positive human LNCAP cells.
A short description of data set [9]: Cytotoxicity against human MCF7 cells assessed as reduction in cell viability measured after 72 hrs by MTT assay. It counts as cell-based.
The subject of the next data set is LNCaP. Put plainly: Cytotoxicity against PSMA-positive human LNCAP cells assessed as reduction in cell viability measured after 72 hrs by MTT assay. It counts as functional.
The subject of a further data set is PC-3. Put plainly: Cytotoxicity against PSMA-deficient human PC3 cells assessed as reduction in cell viability measured after 72 hrs by MTT assay. It counts as functional. The note with it: PC-3, 72 h.
A short description of data set [10]: Selectivity ratio of CC50 for human PSMA-deficient PC3 cells to CC50 for PSMA-positive human LNCAP cells. It counts as functional.
Data set [11] in a line: Selectivity ratio of CC50 for human VA13 cells to CC50 for PSMA-positive human 22Rv1 cells.
In data set [12] the test system is CWR22R. Put plainly: Antitumor activity against human 22Rv1 cells xenografted in nu/nu mouse assessed as tumor growth inhibition at 6 mg/kg, iv administered 3 times per week relative to control. It counts as functional. Conditions: 22Rv1, iv, read-out: TGI. For orientation: In xenograft studies the graft and the host belong to different species.

Glutamate carboxypeptidase 2, sequence (Q04609 whole entry): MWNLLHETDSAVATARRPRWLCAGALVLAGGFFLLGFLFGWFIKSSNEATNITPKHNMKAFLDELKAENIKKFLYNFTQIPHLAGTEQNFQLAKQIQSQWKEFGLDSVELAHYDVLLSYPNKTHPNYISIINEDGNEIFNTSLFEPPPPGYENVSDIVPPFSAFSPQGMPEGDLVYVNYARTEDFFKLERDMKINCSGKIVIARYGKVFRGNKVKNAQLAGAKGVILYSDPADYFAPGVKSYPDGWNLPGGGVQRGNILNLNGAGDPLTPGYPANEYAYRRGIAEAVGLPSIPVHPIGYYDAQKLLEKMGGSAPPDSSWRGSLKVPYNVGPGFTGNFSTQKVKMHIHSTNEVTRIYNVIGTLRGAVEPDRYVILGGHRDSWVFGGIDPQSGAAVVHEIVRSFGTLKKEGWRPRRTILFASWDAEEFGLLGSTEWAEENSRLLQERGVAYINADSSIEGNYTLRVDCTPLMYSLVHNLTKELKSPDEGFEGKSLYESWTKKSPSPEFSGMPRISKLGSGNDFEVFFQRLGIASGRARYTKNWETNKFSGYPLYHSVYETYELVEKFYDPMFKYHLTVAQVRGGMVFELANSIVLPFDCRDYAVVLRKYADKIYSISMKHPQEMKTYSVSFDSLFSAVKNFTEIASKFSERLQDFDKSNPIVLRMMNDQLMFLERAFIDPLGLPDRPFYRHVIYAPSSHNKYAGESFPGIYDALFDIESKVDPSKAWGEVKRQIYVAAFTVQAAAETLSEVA

On to `[N-]=[N+]=NCCCCCC(=O)N(CCCC[C@H](NC(=O)N[C@@H](CCC(=O)O)C(=O)O)C(=O)O)Cc1ccc(O)cc1`, for which the CC50 (commonly the concentration that lowers cell viability or growth by half) at 72 h in data set [1] came out at 50200 nM. In addition, in data set [2], inhibition was half-maximal at 140 nM (IC50).
As for `[N-]=[N+]=NCCCCCC(=O)N(CCCC[C@H](NC(=O)N[C@@H](CCC(=O)O)C(=O)O)C(=O)O)Cc1ccc(Br)cc1`, the IC50 – broadly, the concentration at which inhibition is half-maximal – in [2] turned out to be 170 nM.
As for `[N-]=[N+]=NCCCCCC(=O)N(CCCC[C@H](NC(=O)N[C@@H](CCC(=O)O)C(=O)O)C(=O)O)Cc1ccc(Cl)cc1`, in [1], the CC50 at 72 h is > 100000 nM. In data set [2], this compound yielded an IC50 of 110 nM.
Take `NCCCC[C@H](NC(=O)N[C@@H](CCC(=O)O)C(=O)O)C(=O)O`: in data set [1], the CC50 at 72 h is > 100000 nM. Further, in data set [2], the IC50 turned out to be 1470 nM.
Regarding `CC(=O)O[C@H]1C(=O)[C@@]2(C)[C@H]([C@H](OC(=O)c3ccccc3)[C@]3(O)C[C@H](OC(=O)[C@H](OC(=O)CCCc4cn(CCCCCC(=O)NCCCC[C@H](NC(=O)N[C@@H](CCC(=O)O)C(=O)O)C(=O)O)nn4)[C@@H](NC(=O)c4ccccc4)c4ccccc4)C(C)=C1C3(C)C)[C@]1(OC(C)=O)CO[C@@H]1C[C@@H]2O`, the CC50 at 72 h in data set [3], in data set [6], in data set [9] and in data set [1] was < 20 nM each time. Besides, the Selectivity ratio is 1.13 in [4], 0.47 in data set [8], 0.85 in [10] and 0.62 in data set [11]. Further, the figures for the CC50 with CWR22R [5], in the data set on LNCaP and in the data set with PC-3 were 120 nM, 58 nM and 95 nM, respectively. In the data set with CWR22R [7], the inhibition in vivo at 10 mg/kg stood at 30%.
As to `CC(=O)O[C@H]1C(=O)[C@@]2(C)[C@H]([C@H](OC(=O)c3ccccc3)[C@]3(O)C[C@H](OC(=O)[C@H](O)[C@@H](NC(=O)c4ccccc4)c4ccccc4)C(C)=C1C3(C)C)[C@]1(OC(C)=O)CO[C@@H]1C[C@@H]2O` [PACLITAXEL], the CC50 at 72 h in data set [3], in data set [6], in data set [9] and in data set [1] was < 20 nM each time. For the same compound, the Selectivity ratio in data set [4], in data set [8], in data set [10] and in data set [11] was 1 each time. Besides, the figures for the 50% cytotoxic concentration (CC50) with CWR22R [5], with LNCaP and in the data set on PC-3 were 3.9 nM, 1.4 nM and 2.7 nM, respectively. For the same compound, the inhibition in vivo at 6 mg/kg in the data set with CWR22R [12] is 30%.

The values above are taken from ChEMBL document CHEMBL4387766, “Synthesis and biological evaluation of PSMA-targeting paclitaxel conjugates” (Bioorg Med Chem Lett, 2019).
